In article PMC10747733, “N-Substituted 2-(Benzenosulfonyl)-1-Carbotioamide Derivatives Exert Antimicrobial and Cytotoxic Effects via Aldehyde Dehydrogenase Pathway: Synthesis, In Silico and In Vitro Studies” (Pharmaceuticals, 2023):
Converted amounts (≈) assume the structure as drawn. “Also recorded” adds a separate entry of the source.

Tests used:
ALDH1A1 = ALDH1A1 concentration by ELISA in HepG2 cells; assay type: cell-based, human; details: compound at IC25, 48 h
Experimental: The effect of compounds WZ1–WZ4 on ALDHA1 levels was investigated (Figure 10). The Du145, HepG2 and 769-P cell lines were treated with the calculated IC25 values for each compound.
Selected cell lines, viz HepG2, Du145 and 769-P, were seeded into 6-well plates and incubated for 24 h after seeding with compounds at a concentration equal to IC25. After a further 24 h or 48 h, cells were detached with trypsin and centrifuged. The resulting cell pellet was resuspended in 0.5 mL PBS. The samples were then sonicated, and protein was determined using the Bradford method (Bio-rad; Hercules, CA, USA). Samples were equilibrated to 10 mg/mL of protein, and ALDH1A1 was determined in the samples prepared in this way. ALDH1A1 determination was performed using an ELISA (SEE824Hu; Cloud Clone Corp., Katy, TX, USA), according to the manufacturer’s protocol.

Gram-negative bacteria = assay: Broth microdilution, summary over reference Gram-negative bacteria; assay type: cell-based
Excerpt: Reference strains of microorganisms that came from American Type Culture Collection (ATCC) (Manassas, VA, USA) were used for this study. The representative Gram-positive bacteria were as follows: Staphylococcus aureus ATCC 25923, Staphylococcus aureus ATCC 29213, Staphylococcus aureus ATCC 43300, Staphylococcus epidermidis ATCC 12228, Enterococcus faecalis ATCC 29212, Micrococcus luteus ATCC 10240, Bacillus subtilis ATCC 6633 and Bacillus cereus ATCC 10876. […]
The new compounds WZ1–WZ4 were assayed for both antibacterial and antifungal activity using the broth microdilution method in accordance with the European Committee on Antimicrobial Susceptibility Testing (EUCAST) and Clinical and Laboratory Standards Institute (CLSI) guidelines. […] The antimicrobial effect of compounds WZ1–WZ4 was determined in the concentration range from 2000 to 0.98 µg/mL.
Then, the microbial suspensions were introduced into each well of the microplate and incubated for 18–24 h at 35 °C. […] Next, the values of the minimum bactericidal concentration (MBC) and minimum fungicidal concentration (MFC) of WZ1–WZ4 were assessed. […] The lowest concentrations of compounds without microbial growth were read as MBC or MFC. […]

In the case of CCCCNC(=S)NNS(=O)(=O)c1ccccc1 [WZ2, 2-(Benzenesulfonyl)-N-Butylhydrazine-1-Carbothioamide], the “ALDH1A1 concentration compared to control” value (ALDH1A1) is reported as “increase; also recorded: increased levels”.
For CNC(=S)NNS(=O)(=O)c1ccccc1 [WZ4, 2-(Benzenesulfonyl)-N-Methylhydrazine-1-Carbothioamide], the “ALDH1A1 concentration compared to control” value (ALDH1A1) was “increase; also recorded: increased levels”.
CCCCCCNC(=S)NNS(=O)(=O)c1ccccc1 [WZ3, 2-(Benzenesulfonyl)-N-Hexylhydrazine-1-Carbothioamide] gave an MIC (Gram-negative bacteria; Gram-negative rods from Enterobacterales and Pseudomonas aeruginosa) of 500 to 1000 µg/mL (≈ 1.58 to 3.17 mM) and an MIC (Gram-negative bacteria; remaining Gram-negative bacteria (other than B. bronchiseptica and E. coli)) of 1000 µg/mL (≈ 3.17 mM).
